# Results as given in patent US7396854B2, “Use of serotonergic compound for a method of treatment of hot flushes in post-menopausal women” (N.V. Organon, priority 2001, dated 2008).
# Counter-ions that a name gives are not always drawn.
# System: Male rats (HSD/Cpb:WU)
# Experiment: telemetric body temperature measurements in freely moving rats (rise in core body temperature after manipulation for injection)
# Format: in vivo
# Conditions: subcutaneous, 22 mg/kg
# From the text: Male rats (HSD/Cpb:WU, Harlan Sprague Dawley, Zeist, The Netherlands), weighing 350-480 g, were used. The rats were implanted with a Physio Tel TA11CTA-F40 Implant (Data Sciences International) under pentobarbital anesthesia. After surgery the rats were housed individually in a type II clear MACROLON™ cage (23×17××14 cm). The cages were placed on receivers (RLA 1020). After a recovery and adaptation period of at least one week the rats were used for the experiments. On the experimental day, body temperature, heart rate and locomotor activity was monitored for 30 minutes prior to injection of vehicle or test compound. This period provides a baseline core body temperature relative to which the changes of body temperature after the manipulation of the rats for injection are expressed. After 30 minutes the rats were injected subcutaneously with vehicle or test compound and the same parameters were measured for at least 60 minutes. Immediately after injection the core body temperature rises. Compounds inhibiting this rise in temperature reveal an inhibiting effect on acute body heat production. Results obtained with other parameters, such as the effect on heart rate and on locomotor activity are not presented here. 6 animals were used for measurement of each dose of compound
# Data were analyzed using Dataquest IV Data Acquisition System Ver 2.2.
# Compounds were dissolved in NaCl 0.9% (m/v) in water as vehicle for subcutaneous injection.
smiles,measurement,setting,value
"CNCCC(Oc1ccc(C(F)(F)F)cc1)c1ccccc1 (stereo not drawn) [Fluoxetine, Fluoxetine HCl, reference compound]",absolute mean increments in body temperature relative to baseline during 30 minutes prior to manipulation,5 minutes after injection,0.28 °C
same,absolute mean increments in body temperature relative to baseline during 30 minutes prior to manipulation,10 minutes after injection,0.59 °C
same,absolute mean increments in body temperature relative to baseline during 30 minutes prior to manipulation,15 minutes after injection,0.71 °C
same,absolute mean increments in body temperature relative to baseline during 30 minutes prior to manipulation,20 minutes after injection,0.72 °C
same,absolute mean increments in body temperature relative to baseline during 30 minutes prior to manipulation,25 minutes after injection,0.66 °C
same,absolute mean increments in body temperature relative to baseline during 30 minutes prior to manipulation,30 minutes after injection,0.56 °C
same,absolute mean increments in body temperature relative to baseline during 30 minutes prior to manipulation,35 minutes after injection,0.55 °C
same,absolute mean increments in body temperature relative to baseline during 30 minutes prior to manipulation,40 minutes after injection,0.45 °C
same,absolute mean increments in body temperature relative to baseline during 30 minutes prior to manipulation,45 minutes after injection,0.38 °C
same,absolute mean increments in body temperature relative to baseline during 30 minutes prior to manipulation,50 minutes after injection,0.27 °C
same,absolute mean increments in body temperature relative to baseline during 30 minutes prior to manipulation,55 minutes after injection,0.29 °C
same,absolute mean increments in body temperature relative to baseline during 30 minutes prior to manipulation,60 minutes after injection,0.85 °C
